The test system of assay [1] is theophylline-binding RNA aptamer (RNA, aptamer) GGCGAUACCAGCCGAAAGGCCCUUGGCAGCGUC
As to the kind of experiment: 2D 1H-1H NMR ZZ-exchange. Particulars: no Mg2+; 15 °C; apparent; slope of kf against free theophylline.

Assay [2] shares this test system. As to the kind of experiment: 2D 1H-1H NMR ZZ-exchange, koff/kon. Particulars: no Mg2+; 15 °C; from apparent rate constants.

As to `Cn1c(=O)c2[nH]cnc2n(C)c1=O`, the on-rate constant (kon) in assay [1] was determined as 600 ± 57 M⁻¹ s⁻¹. Also, the Kd in assay [2] stood at 2.5 mM.

For the origin of these results see paper PMC2752443 (2009).
